Laboratory results as given in PubChem BioAssay (NCI).
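Dose response: 5 concentrations. Exposure: 48 h. Format: 96-well plates. Endpoint: linear interpolation; highest concentration if not reached. At the GI50, growth is halved. At the TGI there is no net growth.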

Legend:
Test in all cases: NCI anticancer screen, dose series, 48 h
UACC-257 melanoma = tested on: UACC-257 melanoma
NCI-H226 lung = tested on: NCI-H226 lung
DU-145 prostate = tested on: DU-145 prostate
HCT-15 colon = tested on: HCT-15 colon
HOP-92 NSCLC = tested on: HOP-92 NSCLC
786-0 renal = tested on: 786-0 renal
SF-268 CNS = tested on: SF-268 CNS
NCI-H460 lung = tested on: NCI-H460 lung
SK-MEL-5 melanoma = tested on: SK-MEL-5 melanoma
COLO 205 colon = tested on: COLO 205 colon
MCF7 breast = tested on: MCF7 breast
CAKI-1 renal = tested on: CAKI-1 renal
OVCAR-5 ovarian = tested on: OVCAR-5 ovarian
SF-295 CNS = tested on: SF-295 CNS
RPMI-8226 leukemia = tested on: RPMI-8226 leukemia
HT29 colon = tested on: HT29 colon
UACC-62 melanoma = tested on: UACC-62 melanoma
SR leukemia = tested on: SR leukemia
SF-539 CNS = tested on: SF-539 CNS
TK-10 renal = tested on: TK-10 renal
NCI/ADR-RES ovarian = tested on: NCI/ADR-RES ovarian
HCT-116 colon = tested on: HCT-116 colon
EKVX NSCLC = tested on: EKVX NSCLC
BT-549 breast = tested on: BT-549 breast
SN12C renal = tested on: SN12C renal
MDA-MB-231 breast = tested on: MDA-MB-231 breast
SNB-75 CNS = tested on: SNB-75 CNS
HOP-62 NSCLC = tested on: HOP-62 NSCLC
OVCAR-4 ovarian = tested on: OVCAR-4 ovarian
UO-31 renal = tested on: UO-31 renal
A549 NSCLC = tested on: A549 NSCLC
A498 renal = tested on: A498 renal
OVCAR-8 ovarian = tested on: OVCAR-8 ovarian
SK-OV-3 ovarian = tested on: SK-OV-3 ovarian
HL-60(TB) leukemia = tested on: HL-60(TB) leukemia
RXF 393 renal = tested on: RXF 393 renal
LOX IMVI melanoma = tested on: LOX IMVI melanoma
M14 melanoma = tested on: M14 melanoma
SNB-19 CNS = tested on: SNB-19 CNS
OVCAR-3 ovarian = tested on: OVCAR-3 ovarian
IGROV1 ovarian = tested on: IGROV1 ovarian
MALME-3M melanoma = tested on: MALME-3M melanoma
SW-620 colon = tested on: SW-620 colon
MOLT-4 leukemia = tested on: MOLT-4 leukemia
U251 CNS = tested on: U251 CNS
HCC-2998 colon = tested on: HCC-2998 colon
NCI-H522 lung = tested on: NCI-H522 lung
KM12 colon = tested on: KM12 colon
SK-MEL-2 melanoma = tested on: SK-MEL-2 melanoma
NCI-H23 lung = tested on: NCI-H23 lung
MDA-MB-435 = tested on: MDA-MB-435
SK-MEL-28 melanoma = tested on: SK-MEL-28 melanoma
CCRF-CEM leukemia = tested on: CCRF-CEM leukemia
ACHN renal = tested on: ACHN renal
HS 578T breast = tested on: HS 578T breast
T-47D breast = tested on: T-47D breast
K-562 leukemia = tested on: K-562 leukemia
PC-3 prostate = tested on: PC-3 prostate
MDA-N = tested on: MDA-N

C=C(C)[C@@H]1CC[C@]2(COCCCNCCCN)CC[C@]3(C)[C@H](CC[C@@H]4[C@@]5(C)CC[C@H](OCCCN)C(C)(C)[C@@H]5CC[C@]43C)[C@@H]12
GI50 (UACC-257 melanoma): 0.914 µM | TGI (UACC-257 melanoma): 1.75 µM | GI50 (NCI-H226 lung): 1.04 µM | TGI (NCI-H226 lung): 2.34 µM | GI50 (DU-145 prostate): 0.895 µM | TGI (DU-145 prostate): 1.62 µM | GI50 (HCT-15 colon): 0.86 µM | TGI (HCT-15 colon): 1.59 µM | GI50 (HOP-92 NSCLC): 2.1 µM | TGI (HOP-92 NSCLC): 9.76 µM | GI50 (786-0 renal): 0.825 µM | TGI (786-0 renal): 1.5 µM | GI50 (SF-268 CNS): 6.77 µM | TGI (SF-268 CNS): 15.1 µM | GI50 (NCI-H460 lung): 0.94 µM | TGI (NCI-H460 lung): 1.75 µM | GI50 (SK-MEL-5 melanoma): 1.72 µM | TGI (SK-MEL-5 melanoma): 5.81 µM | GI50 (COLO 205 colon): 0.778 µM | TGI (COLO 205 colon): 1.56 µM | GI50 (MCF7 breast): 0.879 µM | TGI (MCF7 breast): 1.7 µM | GI50 (CAKI-1 renal): 0.982 µM | TGI (CAKI-1 renal): 2.3 µM | GI50 (OVCAR-5 ovarian): 0.918 µM | TGI (OVCAR-5 ovarian): 1.67 µM | GI50 (SF-295 CNS): 0.868 µM | TGI (SF-295 CNS): 1.59 µM | GI50 (RPMI-8226 leukemia): 1.07 µM | TGI (RPMI-8226 leukemia): 2.56 µM | GI50 (HT29 colon): 0.813 µM | TGI (HT29 colon): 1.53 µM | GI50 (UACC-62 melanoma): 0.914 µM | TGI (UACC-62 melanoma): 1.67 µM | GI50 (SR leukemia): 0.577 µM | TGI (SR leukemia): 1.94 µM | GI50 (SF-539 CNS): 0.891 µM | TGI (SF-539 CNS): 1.59 µM | GI50 (TK-10 renal): 0.952 µM | TGI (TK-10 renal): 1.94 µM | GI50 (NCI/ADR-RES ovarian): 0.936 µM | TGI (NCI/ADR-RES ovarian): 1.87 µM | GI50 (HCT-116 colon): 0.898 µM | TGI (HCT-116 colon): 1.67 µM | GI50 (EKVX NSCLC): 0.812 µM | TGI (EKVX NSCLC): 1.61 µM | GI50 (BT-549 breast): 6.86 µM | TGI (BT-549 breast): 14.2 µM | GI50 (SN12C renal): 0.867 µM | TGI (SN12C renal): 1.62 µM | GI50 (MDA-MB-231 breast): 0.863 µM | TGI (MDA-MB-231 breast): 1.67 µM | GI50 (SNB-75 CNS): 0.778 µM | TGI (SNB-75 CNS): 1.57 µM | GI50 (HOP-62 NSCLC): 0.831 µM | TGI (HOP-62 NSCLC): 1.62 µM | GI50 (OVCAR-4 ovarian): 0.934 µM | TGI (OVCAR-4 ovarian): 1.78 µM | GI50 (UO-31 renal): 0.765 µM | TGI (UO-31 renal): 1.5 µM | GI50 (A549 NSCLC): 0.909 µM | TGI (A549 NSCLC): 1.71 µM | GI50 (A498 renal): 7.22 µM | TGI (A498 renal): 14.4 µM | GI50 (OVCAR-8 ovarian): 0.903 µM | TGI (OVCAR-8 ovarian): 1.72 µM | GI50 (SK-OV-3 ovarian): 1.39 µM | TGI (SK-OV-3 ovarian): 4.28 µM | GI50 (HL-60(TB) leukemia): 2.12 µM | TGI (HL-60(TB) leukemia): 8.33 µM | GI50 (RXF 393 renal): 0.825 µM | TGI (RXF 393 renal): 1.61 µM | GI50 (LOX IMVI melanoma): 0.846 µM | TGI (LOX IMVI melanoma): 1.57 µM | GI50 (M14 melanoma): 0.866 µM | TGI (M14 melanoma): 1.65 µM | GI50 (SNB-19 CNS): 0.913 µM | TGI (SNB-19 CNS): 1.66 µM | GI50 (OVCAR-3 ovarian): 0.942 µM | TGI (OVCAR-3 ovarian): 1.72 µM | GI50 (IGROV1 ovarian): 0.93 µM | TGI (IGROV1 ovarian): 1.72 µM | GI50 (MALME-3M melanoma): 0.801 µM | TGI (MALME-3M melanoma): 1.53 µM | GI50 (SW-620 colon): 0.871 µM | TGI (SW-620 colon): 1.67 µM | GI50 (MOLT-4 leukemia): 1.05 µM | TGI (MOLT-4 leukemia): 2.58 µM | GI50 (U251 CNS): 0.836 µM | TGI (U251 CNS): 1.54 µM | GI50 (HCC-2998 colon): 0.96 µM | TGI (HCC-2998 colon): 1.81 µM | GI50 (NCI-H522 lung): 0.868 µM | TGI (NCI-H522 lung): 1.72 µM | GI50 (KM12 colon): 0.928 µM | TGI (KM12 colon): 1.73 µM | GI50 (SK-MEL-2 melanoma): 6.86 µM | TGI (SK-MEL-2 melanoma): 13.8 µM | GI50 (NCI-H23 lung): 0.934 µM | TGI (NCI-H23 lung): 1.79 µM | GI50 (MDA-MB-435): 0.833 µM | TGI (MDA-MB-435): 1.53 µM | GI50 (SK-MEL-28 melanoma): 0.876 µM | TGI (SK-MEL-28 melanoma): 1.6 µM | GI50 (CCRF-CEM leukemia): 0.822 µM | TGI (CCRF-CEM leukemia): 1.97 µM | GI50 (ACHN renal): 0.996 µM | TGI (ACHN renal): 1.95 µM | GI50 (HS 578T breast): 0.997 µM | TGI (HS 578T breast): 2.15 µM | GI50 (T-47D breast): 0.858 µM | TGI (T-47D breast): 1.71 µM | GI50 (K-562 leukemia): 0.879 µM | TGI (K-562 leukemia): 1.82 µM | GI50 (PC-3 prostate): 0.874 µM | TGI (PC-3 prostate): 1.72 µM

O=c1c(Nc2ccccc2)cn(CCOc2ccc(Cl)cc2)c(=O)n1CCOc1ccc(Cl)cc1
TGI (UACC-257 melanoma): > 100 µM | TGI (DU-145 prostate): > 100 µM | TGI (HCT-15 colon): > 100 µM | TGI (786-0 renal): > 100 µM | TGI (SF-268 CNS): > 100 µM | TGI (NCI-H460 lung): > 100 µM | TGI (SK-MEL-5 melanoma): > 100 µM | TGI (COLO 205 colon): > 100 µM | TGI (CAKI-1 renal): > 100 µM | TGI (SF-295 CNS): > 100 µM | TGI (RPMI-8226 leukemia): > 100 µM | TGI (UACC-62 melanoma): > 100 µM | TGI (SR leukemia): > 100 µM | TGI (HCT-116 colon): > 100 µM | TGI (EKVX NSCLC): > 100 µM | TGI (SN12C renal): > 100 µM | TGI (OVCAR-4 ovarian): > 100 µM | TGI (UO-31 renal): > 100 µM | TGI (A549 NSCLC): > 100 µM | TGI (A498 renal): > 100 µM | TGI (MDA-N): > 100 µM | TGI (RXF 393 renal): > 100 µM | TGI (LOX IMVI melanoma): > 100 µM | TGI (M14 melanoma): > 100 µM | TGI (SNB-19 CNS): > 100 µM | TGI (IGROV1 ovarian): > 100 µM | TGI (SW-620 colon): > 100 µM | TGI (MOLT-4 leukemia): > 100 µM | TGI (U251 CNS): > 100 µM | TGI (HCC-2998 colon): > 100 µM | TGI (KM12 colon): > 100 µM | TGI (NCI-H23 lung): > 100 µM | TGI (MDA-MB-435): > 100 µM | TGI (SK-MEL-28 melanoma): > 100 µM | TGI (CCRF-CEM leukemia): > 100 µM | TGI (ACHN renal): > 100 µM | TGI (HS 578T breast): > 100 µM | TGI (K-562 leukemia): > 100 µM | TGI (PC-3 prostate): > 100 µM
